# Measured values reported in the supplement of paper PMC10307832.
# Compound: CC1=CC(=CC=C1)NC2=NC(=CS2)C3=CC=NC=C3 + O=C(c1cc(Cc2n[nH]c(=O)c3ccccc23)ccc1F)N1CCN(C(=O)C2CC2)CC1 [Olaparib] (partner 8 µM)
# Assay: relative viability (nuclei count vs DMSO), 5 days (fraction); higher = more cells survive
# Details: first compound 8 µM
# Method in brief: (§1)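 Each reported value is a median over duplicate plates. It expresses relative viability: treated-well nuclei count divided by vehicle-well nuclei count. Lung cancer cell lines in 1536-well plates were dosed by pin tool a day after seeding, alone with one drug or with a fixed anchor-drug dose plus five library-drug doses (not always all listed) in √10 steps, and nuclei were counted after 5 days.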
row,Cell Line,relative viability
1,NCI-H727,0.743
2,NCI-H1755,0.533
3,NCI-H2405,0.723

# Compound: Cc1ccc(NC(=O)c2ccc(CN3CCN(C)CC3)cc2)cc1Nc1nc(-c2cccnc2)cs1 [Masitinib] + CS(=O)(=O)N1CCN(Cc2cc3nc(-c4cccc5[nH]ncc45)nc(N4CCOCC4)c3s2)CC1 [Pictilisib] (partner 1 µM)
# Assay: as above
# Details: first compound 0.01 µM
# Method in brief: as §1
row,Cell Line,relative viability
1,NCI-H838,0.477
2,NCI-H1651,0.529
3,NCI-H1734,0.441
4,LU99A,0.324
5,PC-14,0.603
6,LCLC-103H,0.557
7,NCI-H596,0.214
8,EMC-BAC-2,0.553
9,NCI-H2087,0.894
10,HCC-366,0.119
11,NCI-H647,0.424
12,LK-2,0.595
13,NCI-H2126,0.514
14,NCI-H1793,0.455
15,H3255,0.489
16,LOU-NH91,0.497
17,ChaGo-K-1,0.929
18,NCI-H358,0.328
19,NCI-H3122,0.579
20,HOP-62,0.652
21,HCC-44,0.633
22,LXF-289,0.729
23,BEN,0.638
24,HARA,0.389
25,HCC-78,0.206
26,NCI-H441,0.654
27,LCLC-97TM1,0.156
28,NCI-H460,0.587
29,NCI-H727,0.506
30,NCI-H2405,0.434

# Same assay, conditions: first compound 0.03162 µM
row,Cell Line,relative viability
1,NCI-H838,0.387
2,NCI-H1651,0.585
3,NCI-H1734,0.459
4,LU99A,0.332
5,PC-14,0.613
6,LCLC-103H,0.621
7,NCI-H596,0.345
8,EMC-BAC-2,0.518
9,NCI-H2087,0.859
10,HCC-366,0.0994
11,NCI-H647,0.356
12,LK-2,0.656
13,NCI-H2126,0.459
14,NCI-H1793,0.318
15,H3255,0.501
16,LOU-NH91,0.499

row,Cell Line,relative viability
1,ChaGo-K-1,0.466
2,NCI-H358,0.319
3,NCI-H3122,0.623
4,HOP-62,0.676
5,HCC-44,0.436
6,LXF-289,0.836
7,BEN,0.51
8,HARA,0.331
9,HCC-78,0.19
10,NCI-H441,0.449
11,LCLC-97TM1,0.172
12,A-427,0.55
13,NCI-H460,0.26
14,NCI-H727,0.416
15,NCI-H1755,0.387
16,NCI-H2405,0.382

# Same assay, conditions: first compound 0.1 µM
row,Cell Line,relative viability
1,NCI-H838,0.512
2,NCI-H1651,0.543
3,NCI-H1734,0.532
4,LU99A,0.346
5,PC-14,0.77
6,LCLC-103H,0.596
7,NCI-H596,0.438
8,EMC-BAC-2,0.58
9,NCI-H2087,0.837
10,HCC-366,0.131
11,NCI-H647,0.44
12,LK-2,0.671
13,NCI-H2126,0.459
14,NCI-H1793,0.427
15,H3255,0.542
16,LOU-NH91,0.492

row,Cell Line,relative viability
1,ChaGo-K-1,0.929
2,NCI-H358,0.34
3,NCI-H3122,0.595
4,HOP-62,0.842
5,HCC-44,0.59
6,LXF-289,0.792
7,BEN,0.71
8,HARA,0.448
9,HCC-78,0.23
10,NCI-H441,0.601
11,LCLC-97TM1,0.287
12,NCI-H460,0.415
13,NCI-H727,0.443
14,NCI-H1755,0.402
15,NCI-H2405,0.445

# Same assay, conditions: first compound 0.3162 µM
row,Cell Line,relative viability
1,NCI-H838,0.396
2,NCI-H1651,0.622
3,NCI-H1734,0.412
4,LU99A,0.349
5,PC-14,0.747
6,LCLC-103H,0.583
7,NCI-H596,0.385
8,EMC-BAC-2,0.552
9,NCI-H2087,0.93
10,HCC-366,0.115
11,NCI-H647,0.333
12,LK-2,0.569
13,NCI-H2126,0.414
14,NCI-H1793,0.381
15,H3255,0.456
16,LOU-NH91,0.432

row,Cell Line,relative viability
1,ChaGo-K-1,0.823
2,NCI-H358,0.394
3,NCI-H3122,0.677
4,HOP-62,0.71
5,HCC-44,0.509
6,LXF-289,0.846
7,BEN,0.555
8,HARA,0.372
9,HCC-78,0.19
10,NCI-H441,0.482
11,LCLC-97TM1,0.218
12,A-427,0.687
13,NCI-H460,0.254
14,NCI-H727,0.317
15,NCI-H1755,0.482
16,NCI-H2405,0.302

# Same assay, conditions: first compound 1 µM
row,Cell Line,relative viability
1,NCI-H838,0.432
2,NCI-H1651,0.505
3,NCI-H1734,0.395
4,LU99A,0.279
5,PC-14,0.657
6,LCLC-103H,0.543
7,NCI-H596,0.35
8,EMC-BAC-2,0.503
9,NCI-H2087,0.805
10,HCC-366,0.138
11,NCI-H647,0.321
12,LK-2,0.641
13,NCI-H2126,0.467
14,NCI-H1793,0.338
15,H3255,0.407
16,LOU-NH91,0.501

row,Cell Line,relative viability
1,ChaGo-K-1,0.598
2,NCI-H358,0.296
3,NCI-H3122,0.574
4,HOP-62,0.557
5,HCC-44,0.543
6,LXF-289,0.761
7,BEN,0.627
8,HARA,0.412
9,HCC-78,0.223
10,NCI-H441,0.446
11,LCLC-97TM1,0.2
12,A-427,0.601
13,NCI-H460,0.321
14,NCI-H727,0.317
15,NCI-H1755,0.423
16,NCI-H2405,0.332
